Measurements reported in patent publication US9567319B2, “Compound having higher inhibitory activity on protein kinase G and preparation method thereof” (Jenkem Technology Co., Ltd., (Tianjin), priority 2014, dated 2017).
“And” between values parts separate entries of the source, which are not always exact repeats. Equal entries are not always repeated.

Key:
[1] = tested on: hyperalgesia induced by Freund's complete adjuvant (CFA) in rats; assay: Von Frey filament test, CFA induced hyperalgesia in rats; format: in vivo, SD rats; conditions: for Von Frey Filament Test Values (Mean ± SD), Baseline: pretreatment, n=8; for Von Frey Filament Test Values (Mean ± SD), 15 min: 15 min post treatment; for Von Frey Filament Test Values (Mean ± SD), 2 h: 2 h post treatment
Method: Compounds 46 and JK-02A were prepared according to the disclosure of US patent application No. US2008/0176920, and compound JK-02H was prepared according to Example 1. A repeat efficacy study was carried out on the same batch of animals with a single-dose treatment followed by a washing-out period. The 14 days in life studies included two stages: a single low dose treatment assessment on the 7th day and then a single high dose treatment test on the 14th day after CFA injection. On the 7th day after CFA injection, the rats were randomly assigned to respective groups using a computer generated randomization procedure based on the body weight and the baseline values of Von Frey and weight bearing test. Animals received corresponding single dose treatments (vehicle and 3 test articles) on the 7th and 14th days after CFA injection, respectively, and the effect of the test compounds were evaluated. Hyperalgesia of all the study animals was assessed following a single low dose treatment with the test articles on day 7, while a single high dose effect of the test article was evaluated on day 14. The mechanical hyperalgesia and weight bearing were measured on day 7 and day 14 after CFA injection, followed by administration of control or test articles. Von Frey filaments and weight bearing were measured on all the study animals at three time points on day 7, and four time points on day 14. An extra time point assessment was conducted on day 14, considering the strong analgesic effect of the test articles at a higher dose noticed during the test at the 3th time point. Mechanical hyperalgesia of the left hind paw was measured before and during the course of study in all animal groups by determining withdrawal thresholds to Von Frey filament (Bioseb, France). Increasing tensile force perpendicular to the plantar surface of the paw was applied to the filaments. The threshold for paw withdrawal was calculated by taking the average of 2-3 repeated stimuli (unit in “g”). On day 7, Von Frey Filament measurements were conducted three times, at the time points of pretreatment, 15 min and 2 hours post treatment. Following a one-week washing out period, on day 14 after CFA injection, Von Frey Filament tests were performed again four times post a single high dose administration. Rats treated with vehicle or high dose test articles were measured at the time points of pretreatment, 15 min, 2 and 5 hours post treatment. All the results were expressed as mean±SD. One-way analysis of variance (ANOVA) followed by a multiple comparison test were applied among the groups, p<0.05 accepted as significant.

[2] = tested on: hyperalgesia induced by Freund's complete adjuvant (CFA) in rats; assay: Weight bearing test, CFA induced hyperalgesia in rats; format: in vivo, SD rats; conditions: for Weight Bearing Test Values (Mean ± SD), Baseline: pretreatment, n=8; for Weight Bearing Test Values (Mean ± SD), 15 min: 15 min post treatment; for Weight Bearing Test Values (Mean ± SD), 2 h: 2 h post treatment
Method: Compounds 46 and JK-02A were prepared according to the disclosure of US patent application No. US2008/0176920, and compound JK-02H was prepared according to Example 1. A repeat efficacy study was carried out on the same batch of animals with a single-dose treatment followed by a washing-out period. The 14 days in life studies included two stages: a single low dose treatment assessment on the 7th day and then a single high dose treatment test on the 14th day after CFA injection. On the 7th day after CFA injection, the rats were randomly assigned to respective groups using a computer generated randomization procedure based on the body weight and the baseline values of Von Frey and weight bearing test. Animals received corresponding single dose treatments (vehicle and 3 test articles) on the 7th and 14th days after CFA injection, respectively, and the effect of the test compounds were evaluated. Hyperalgesia of all the study animals was assessed following a single low dose treatment with the test articles on day 7, while a single high dose effect of the test article was evaluated on day 14. The mechanical hyperalgesia and weight bearing were measured on day 7 and day 14 after CFA injection, followed by administration of control or test articles. Von Frey filaments and weight bearing were measured on all the study animals at three time points on day 7, and four time points on day 14. An extra time point assessment was conducted on day 14, considering the strong analgesic effect of the test articles at a higher dose noticed during the test at the 3th time point. Rats distributed body weight unequally on the CFA-injected and contra lateral paws, which was measured by a weight balance changing instrument (Bio-medical, USA). The animals were tested in a box constructed to register the weight load exerted by the hind paws by means of force plates inserted in the floor. The mean weight bearing (unit in “g”) between the CFA-injected paw and the contra-lateral paw was determined in 10 seconds. The weight bearing test of all study animals was conducted at the same time intervals as the mechanical hyperalgesia test. All the results were expressed as mean±SD. One-way analysis of variance (ANOVA) followed by a multiple comparison test were applied among the groups, p<0.05 accepted as significant.

[3] = day 7 after CFA, low dose groups (46 and JK-02A 10 mg/kg, JK-02H 5 mg/kg)
[4] = day 7 after CFA, single low dose i.v. (46 and JK-02A 10 mg/kg, JK-02H 5 mg/kg)
[5] = day 14 after CFA, high dose groups (46 and JK-02A 40 mg/kg, JK-02H 20 mg/kg)
[6] = day 14 after CFA, single high dose i.v. (46 and JK-02A 40 mg/kg, JK-02H 20 mg/kg)
[7] = day 14 after CFA, single high dose i.v. (46 and JK-02A 40 mg/kg, JK-02H 20 mg/kg), 5 h post treatment
[8] = individual animal, high dose i.v. (46 and JK-02A 40 mg/kg, JK-02H 20 mg/kg), two repeated stimuli, hydrochloride
[9] = individual animal, low dose i.v. (46 and JK-02A 10 mg/kg, JK-02H 5 mg/kg), two repeated stimuli, hydrochloride
[10] = individual animal, high dose i.v. (46 and JK-02A 40 mg/kg, JK-02H 20 mg/kg), hydrochloride
[11] = individual animal, low dose i.v. (46 and JK-02A 10 mg/kg, JK-02H 5 mg/kg), hydrochloride

Cl.O=C(N[C@@H]1CNC[C@H]1NC(=O)c1ccc2cn[nH]c2c1)c1ccc(C(=O)c2c(OCCOCCO)ccc(F)c2F)cc1 [JK-02H, (3R,4R)-3-{4-[2,3-difluoro-6-(5-hydroxy-3-oxapentan-1-oxy)]benzoyl}benzamido-4-(1H-indazole-6-carboxamido)pyrrolidine hydrochloride]
Von Frey Filament Test Values (Mean ± SD), Baseline [1, 3]: 6.76 ± 0.73 g
Von Frey Filament Test Values (Mean ± SD), 15 min [1, 4]: 9.85 ± 2.15 g
Von Frey Filament Test Values (Mean ± SD), 2 h [1, 4]: 8.69 ± 1.57 g
Von Frey Filament Test Values (Mean ± SD), Baseline [1, 5]: 6.81 ± 0.70 g
Von Frey Filament Test Values (Mean ± SD), 15 min [1, 6]: 10.87 ± 1.00 g
Von Frey Filament Test Values (Mean ± SD), 2 h [1, 6]: 10.57 ± 1.76 g
Von Frey Filament Test Values (Mean ± SD), 5 h [1, 7]: 9.68 ± 1.63 g
Von Frey Values of Individual Animal, Day 14, 15 min [1, 8]: 11.6 g and 11.4 g (2×) and 9.4 g (2×) and 10.9 g and 9.7 g and 10.3 g and 10.1 g and 11.1 g and 10.8 g and 10.4 g and 12.0 g and 13.7 g and 11.7 g and 10.0 g
Von Frey Values of Individual Animal, Day 14, 2 h [1, 8]: 7.1 g and 8.9 g and 11.3 g and 10.8 g (2×) and 9.2 g and 7.2 g and 12.0 g and 9.8 g and 10.5 g and 10.3 g and 11.4 g and 11.0 g and 12.3 g and 13.0 g and 13.5 g
Von Frey Values of Individual Animal, Day 14, 5 h [1, 8]: 7.3 g and 8.9 g and 8.7 g (2×) and 9.5 g and 7.1 g and 7.4 g and 8.5 g and 11.0 g and 9.8 g and 11.3 g and 9.9 g and 11.2 g and 12.6 g and 12.1 g and 10.9 g
Von Frey Values of Individual Animal, Day 7, 15 min [1, 9]: 6.5 g and 5.5 g and 11.9 g and 13.8 g and 8.6 g and 8.5 g (2×) and 10.5 g (2×) and 11.3 g (2×) and 8.7 g and 9.3 g and 9.7 g and 11.4 g and 11.7 g
Von Frey Values of Individual Animal, Day 7, 2 h [1, 9]: 7.0 g and 6.2 g and 11.4 g and 11.2 g and 8.7 g (2×) and 9.0 g and 7.5 g (3×) and 6.5 g and 8.5 g and 10.8 g (2×) and 8.4 g and 9.4 g
First Baseline, Von Frey, individual animal ([1]; individual animal, pretreatment day 7, two repeated stimuli per animal, hydrochloride): 4.9 g and 5.8 g (3×) and 6.7 g and 7.7 g and 6.1 g and 7.0 g and 7.1 g and 6.4 g and 7.4 g (2×) and 7.3 g (2×) and 8.0 g and 7.5 g
Second Baseline, Von Frey, individual animal ([1]; individual animal, pretreatment day 14 after washing-out, two repeated stimuli per animal, hydrochloride): 5.2 g and 5.4 g and 8.4 g and 6.7 g and 6.6 g (2×) and 6.4 g and 7.3 g (2×) and 7.1 g and 6.8 g and 7.6 g and 7.4 g and 6.9 g and 6.2 g and 7.0 g
Weight Bearing Test Values (Mean ± SD), Baseline [2, 3]: 48.83 ± 9.15 g
Weight Bearing Test Values (Mean ± SD), 15 min [2, 4]: 25.30 ± 7.97 g
Weight Bearing Test Values (Mean ± SD), 2 h [2, 4]: 37.43 ± 9.77 g
Weight Bearing Test Values (Mean ± SD), Baseline [2, 5]: 46.68 ± 4.82 g
Weight Bearing Test Values (Mean ± SD), 15 min [2, 6]: 28.55 ± 10.91 g
Weight Bearing Test Values (Mean ± SD), 2 h [2, 6]: 30.48 ± 7.88 g
Weight Bearing Test Values (Mean ± SD), 5 h [2, 7]: 37.58 ± 6.58 g
Weight Bearing Values of Individual Animal, Day 14, 15 min, Left [2, 10]: 59.4 g and 69.4 g and 72.7 g and 72.8 g and 23.1 g and 55.7 g and 42.0 g and 55.0 g
Weight Bearing Values of Individual Animal, Day 14, 15 min, Right [2, 10]: 82.5 g and 90.8 g and 92.9 g and 99.1 g and 77.6 g and 82.3 g and 70.4 g and 82.9 g
Weight Bearing Values of Individual Animal, Day 14, 15 min, Δ [2, 10]: 23.1 g and 21.4 g and 20.2 g and 26.3 g and 54.5 g and 26.6 g and 28.4 g and 27.9 g
Weight Bearing Values of Individual Animal, Day 14, 2 h, Left [2, 10]: 75.2 g and 69.4 g and 47.2 g and 71.7 g (2×) and 76.8 g and 55.9 g and 47.9 g
Weight Bearing Values of Individual Animal, Day 14, 2 h, Right [2, 10]: 95.7 g and 104.8 g and 90.0 g and 96.8 g and 99.9 g and 93.7 g and 80.6 g and 98.1 g
Weight Bearing Values of Individual Animal, Day 14, 2 h, Δ [2, 10]: 20.5 g and 35.4 g and 42.8 g and 25.1 g and 23.1 g and 37.8 g and 32.7 g and 26.4 g
Weight Bearing Values of Individual Animal, Day 14, 5 h, Left [2, 10]: 63.5 g and 62.4 g and 66.3 g and 54.9 g and 63.8 g and 57.7 g and 47.6 g and 44.0 g
Weight Bearing Values of Individual Animal, Day 14, 5 h, Right [2, 10]: 94.2 g and 111.2 g and 105.6 g and 95.6 g and 95.1 g and 88.7 g and 83.3 g and 87.1 g
Weight Bearing Values of Individual Animal, Day 14, 5 h, Δ [2, 10]: 30.7 g and 48.8 g and 39.3 g and 40.7 g and 31.3 g and 31.0 g and 35.7 g and 43.1 g
Weight Bearing Values of Individual Animal, Day 7, 15 min, Left [2, 11]: 54.2 g and 73.4 g and 30.9 g and 63.3 g and 46.3 g and 67.8 g and 45.1 g and 60.6 g
Weight Bearing Values of Individual Animal, Day 7, 15 min, Right [2, 11]: 77.2 g and 99.2 g and 71.7 g and 77.8 g and 72.4 g and 85.5 g and 75.2 g and 85.0 g
Weight Bearing Values of Individual Animal, Day 7, 15 min, Δ [2, 11]: 23.0 g and 25.8 g and 40.8 g and 14.5 g and 26.1 g and 17.7 g and 30.1 g and 24.4 g
Weight Bearing Values of Individual Animal, Day 7, 2 h, Left [2, 11]: 42.3 g and 29.7 g and 57.5 g and 72.9 g and 23.1 g and 37.3 g and 43.5 g and 51.9 g
Weight Bearing Values of Individual Animal, Day 7, 2 h, Right [2, 11]: 66.8 g and 74.0 g and 106.2 g and 97.7 g and 71.6 g and 77.0 g and 81.2 g and 83.1 g
Weight Bearing Values of Individual Animal, Day 7, 2 h, Δ [2, 11]: 24.5 g and 44.3 g and 48.7 g and 24.8 g and 48.5 g and 39.7 g and 37.7 g and 31.2 g
First Baseline, Balance Left, individual animal ([2]; individual animal, pretreatment day 7, left (CFA-injected) hind paw, hydrochloride): 62.6 g and 45.6 g and 51.0 g and 60.6 g and 48.8 g and 56.5 g and 38.6 g and 64.0 g
First Baseline, Balance Right, individual animal ([2]; individual animal, pretreatment day 7, right hind paw, hydrochloride): 96.2 g (2×) and 101.1 g and 115.5 g and 89.7 g and 121.0 g and 87.7 g and 110.9 g
First Baseline, Balance Δ, individual animal ([2]; individual animal, pretreatment day 7, right minus left, hydrochloride): 33.6 g and 50.6 g and 50.1 g and 54.9 g and 40.9 g and 64.5 g and 49.1 g and 46.9 g
Second Baseline, Balance Left, individual animal ([2]; individual animal, pretreatment day 14, left (CFA-injected) hind paw, hydrochloride): 43.2 g and 65.0 g and 68.9 g and 61.3 g and 47.2 g and 60.6 g and 50.2 g and 51.8 g
Second Baseline, Balance Right, individual animal ([2]; individual animal, pretreatment day 14, right hind paw, hydrochloride): 86.1 g and 110.8 g and 113.2 g and 115.1 g and 93.6 g and 102.8 g and 93.7 g and 106.3 g
Second Baseline, Balance Δ, individual animal ([2]; individual animal, pretreatment day 14, right minus left, hydrochloride): 42.9 g and 45.8 g and 44.3 g and 53.8 g and 46.4 g and 42.2 g and 43.5 g and 54.5 g
